Test results: PubChem BioAssay AID1035473 (Broad Institute, 2014)

Tested on: A549 viability, CellTiter-Glo ATP luminescence, 72 h
Assay: A549 cell cytotoxicity, dose response, cytotoxicity control, dry powder samples (AID 1035473)

Question: Which AC50 does the source give for `Cn1c(NC(=O)c2ccccc2)nc2c3cnccc3ccc21` here?
Answer: Its AC50 is 83.9 µM.
